Source: PMC5577582 (Toxins, 2017)
Positions of bridges follow the written chain, without caps; N, C: chain ends. Residues, ends and D or L forms follow the SMILES beside them.

Columns and labels:
[1] = assay type: physicochemical; settings: peptide 1 mg/mL in 9:1 v/v H2O/D2O, heated 20 to 80 °C, 500 MHz 1D 1H NMR
Procedure: A Bruker 500 MHz Avance nuclear magnetic resonance (NMR) spectrometer was used to heat the peptides (1 mg/mL in 9:1 v/v H2O/D2O) and to monitor structural changes at temperatures ranging from 20 to 80 °C. One-dimensional (1D) ^1H NMR spectra and two-dimensional (2D) nuclear Overhauser effect spectroscopy (NOESY) (200 ms mixing time) spectra were acquired and processed using TopSpin 3.5 (Bruker, Billerica, MA, USA) and CCPNMR Analysis 2.4.1 was used in the assignment of the NOE spectra.

[2] = 30 μM peptide, 24 h; for Degradation at pH 12: phosphate buffer pH 12, 37 °C, RP-HPLC trace compared to pH 4
[3] = Human serum isolated from male AB plasma; settings: 37 °C, up to 24 h
[4] = assay type: physicochemical; settings: 100 °C in water for 30 min, heating block, cooled to 25 °C, C18 RP-HPLC at 215 nm, MALDI-MS of the products
[5] = phosphate buffer adjusted to pH 12; settings: 37 °C, up to 24 h

| Molecule | 1D 1H NMR spectral changes at 80 °C [1] | not cleaved [3] | other results |
| --- | --- | --- | --- |
| CC[C@H](C)[C@H](NC(=O)[C@H](CCC(N)=O)NC(=O)[C@H](Cc1ccc(O)cc1)NC(=O)[C@H](CCCCN)NC(=O)[C@@H]1CSSC[C@@H]2NC(=O)[C@H](CCCCN)NC(=O)[C@H](CC(=O)O)NC(=O)[C@H](CC(N)=O)NC(=O)[C@H](CO)NC(=O)[C@@H]3CCCN3C(=O)[C@H](CC(N)=O)NC(=O)[C@@H]3CSSC[C@H](NC(=O)[C@H](C(C)C)NC(=O)[C@H](CC(C)C)NC(=O)[C@H](CC(N)=O)NC(=O)[C@@H]4CCCN4C(=O)[C@H](CCCNC(=N)N)NC(=O)[C@H](CSSC[C@H](NC(=O)[C@@H](N)CC(=O)O)C(=O)N[C@@H](CC(C)C)C(=O)NCC(=O)N[C@@H](Cc4ccccc4)C(=O)N[C@@H](CC(C)C)C(=O)N[C@@H](Cc4c[nH]c5ccccc45)C(=O)N[C@@H](CCCCN)C(=O)N3)NC2=O)C(=O)N[C@@H](CO)C(=O)N[C@@H](CCCNC(=N)N)C(=O)N[C@@H](CCCCN)C(=O)N[C@@H](CC(=O)O)C(=O)N[C@@H](CCCCN)C(=O)N[C@@H](Cc2c[nH]c3ccccc23)C(=O)N1)C(=O)O [PaurTx-3] (H-DCLGFLWKCNPSNDKCCRPNLVCSRKDKWCKYQI-OH; disulfide 2-17, 9-23, 16-30) | maintained narrow peaks but also showed some loss in intensity |  | Degradation at pH 12 [2]: larger proportion of the folded peptide remaining |
| ECLEIFKACNPSNDQCCKSSKLVCSRKTRWCKYQI* |  | more than 90% peptide remaining after a 24 h incubation |  |
| CC(C)C[C@@H]1NC(=O)[C@H](Cc2c[nH]cn2)NC(=O)[C@H](CCCCN)NC(=O)[C@@H]2CSSC[C@H](NC(=O)[C@@H](N)[C@@H](C)O)C(=O)N[C@@H](CCCNC(=N)N)C(=O)N[C@@H](Cc3ccc(O)cc3)C(=O)N[C@@H](CC(C)C)C(=O)N[C@@H](Cc3ccccc3)C(=O)NCC(=O)NCC(=O)N[C@H]3CSSC[C@H](NC(=O)[C@H](C)NC1=O)C(=O)N[C@@H](CCCNC(=N)N)C(=O)N[C@@H](CO)C(=O)N[C@@H](CC(=O)O)C(=O)NCC(=O)N[C@@H](CCCCN)C(=O)N[C@@H](Cc1ccc(O)cc1)C(=O)N[C@H](C(=O)N[C@@H](C)C(=O)N[C@@H](Cc1c[nH]c4ccccc14)C(=O)N[C@@H](CC(=O)O)C(=O)NCC(=O)N[C@H](C(=O)N[C@@H](Cc1ccccc1)C(=O)O)[C@@H](C)O)CSSC[C@H](NC(=O)[C@H](CC(=O)O)NC(=O)[C@H](C)NC(=O)[C@H]([C@@H](C)O)NC(=O)[C@H]([C@@H](C)O)NC(=O)[C@H](CCCCN)NC3=O)C(=O)N2 [SgTx-1] | peak broadening and loss of intensity |  | Loss of peptide at pH 2 ([2]; phosphate buffer pH 2, 37 °C, RP-HPLC relative to pH 4): small loss of peptide; Mass loss of degradation product from native peptide after boiling: 18 Da; Analytical RP-HPLC trace after boiling [4]: minor degradation product |
| ECLGFGKGCNPSNDQCCKSSNLVCSRKHRWCKYEI* |  | more than 90% peptide remaining after a 24 h incubation |  |
| DCLGFLWKCNPSNDKCCRPNLVCSRKDKWCKYQI |  | more than 90% peptide remaining after a 24 h incubation | cleaved bond [5]: Q-Ile34, 24 h |
| DCLGFMRKCIPDNDKCCRPNLVCSRTHKWCKYVF* |  | more than 90% peptide remaining after a 24 h incubation |  |
| CC[C@H](C)[C@H](NC(=O)[C@H](CCC(=O)O)NC(=O)[C@H](Cc1ccc(O)cc1)NC(=O)[C@H](CCCCN)NC(=O)[C@@H]1CSSC[C@@H]2NC(=O)[C@H](CCC(N)=O)NC(=O)[C@H](CC(=O)O)NC(=O)[C@H](CC(N)=O)NC(=O)[C@H](CO)NC(=O)[C@@H]3CCCN3C(=O)[C@H](CC(N)=O)NC(=O)[C@@H]3CSSC[C@H](NC(=O)[C@H](C(C)C)NC(=O)[C@H](CC(C)C)NC(=O)[C@H](CC(N)=O)NC(=O)[C@H](CO)NC(=O)[C@H](CO)NC(=O)[C@H](CCCCN)NC(=O)[C@H](CSSC[C@H](NC(=O)[C@@H](N)CCC(=O)O)C(=O)N[C@@H](CC(C)C)C(=O)NCC(=O)N[C@@H](Cc4ccccc4)C(=O)NCC(=O)N[C@@H](CCCCN)C(=O)NCC(=O)N3)NC2=O)C(=O)N[C@@H](CO)C(=O)N[C@@H](CCCNC(=N)N)C(=O)N[C@@H](CCCCN)C(=O)N[C@@H](Cc2c[nH]cn2)C(=O)N[C@@H](CCCNC(=N)N)C(=O)N[C@@H](Cc2c[nH]c3ccccc23)C(=O)N1)C(N)=O [HnTx-IV] | peak broadening and loss of intensity |  | Degradation at pH 12 [2]: completely degraded |
